We go through 6 molecules from publication PMC12304045 (2025).

By Kd is commonly meant a measure of binding affinity in units of concentration. Low readings indicate tighter binding, high ones weaker binding.

Assay [1] concerns OTC-APT5, amine-terminated (DNA, aptamer) ACGACATTCCGTTGATCTCTCCCTTTTGGGTTGGTGTCGT
The assay is described as follows: DPV aptasensor, [Fe(CN)6]3-/4- probe. As to conditions: 2 mM MgCl2, 10 mM phosphate buffer pH 7.4.

For assay [2], the system named is OTC-APT5 (DNA, aptamer) ACGACATTCCGTTGATCTCTCCCTTTTGGGTTGGTGTCGT
Nature of the assay: circular dichroism. Conditions: 100 mM NaCl, 5 mM KCl, 2 mM MgCl2, 2 mM CaCl2; 20 mM tris, 0.05% Tween 20, 25 °C; 2 μM aptamer. For orientation: Circular dichroism is widely used to follow secondary structure.

Assay [3] shares this test system. The assay is described as follows: fluorescence polarization titration. As to conditions: 100 mM NaCl, 5 mM KCl, 2 mM MgCl2, 2 mM CaCl2; 20 mM tris, 0.05% Tween 20; 200 nM OTC titrated with aptamer. On the technique in general: Polarisation of emitted light reports the rotation of a fluorescent probe.
Assay [4] has the same test system. The assay is described as follows: fluorescence titration. Conditions: 100 mM NaCl, 5 mM KCl, 2 mM MgCl2, 2 mM CaCl2; 20 mM tris, 0.05% Tween 20; 200 nM OTC titrated with aptamer; unit likely misprint for nM.
The mark [5] stands for this setting: highest tested 250 ng/mL, signal change <10% of OTC.

`NC[C@H]1O[C@H](O[C@H]2[C@H](O)[C@@H](O[C@H]3O[C@H](CO)[C@@H](O)[C@H](N)[C@H]3O)[C@H](N)C[C@@H]2N)[C@H](O)[C@@H](O)[C@@H]1O`: the binding result in assay [1] (setting [5]) was “no”.
In the case of `CN(C)[C@@H]1C(=O)C(C(N)=O)=C(O)[C@@]2(O)C(=O)C3=C(O)c4c(O)cccc4[C@@](C)(O)[C@H]3[C@H](O)[C@@H]12`, the binding entry in assay [2] and in assay [1] (50 ng/mL OTC) was “yes” in each case. Further, the results for the Kd in assay [3] and in assay [4] were 0.062 µM and 106 nM, respectively.
As for `CN(C)[C@@H]1C(=O)C(C(N)=O)=C(O)[C@@]2(O)C(=O)C3=C(O)c4c(O)cccc4[C@@](C)(O)[C@H]3C[C@@H]12`, the binding entry in assay [1] (50 ng/mL, signal similar to OTC) is given as “yes”.
Turning to `CN[C@@H]1[C@H](O[C@H]2[C@H](O[C@H]3[C@H](O)[C@@H](O)[C@H](N=C(N)N)[C@@H](O)[C@@H]3N=C(N)N)O[C@@H](C)[C@]2(O)C=O)O[C@@H](CO)[C@H](O)[C@H]1O`, the binding result in assay [1] (setting [5]) was “no”.
Regarding `CC1(C)S[C@@H]2[C@H](NC(=O)[C@H](N)c3ccccc3)C(=O)N2[C@H]1C(=O)O`, in assay [1] (tested at fivefold excess over OTC, signal change <10% of OTC), the binding entry is listed as “no”.
Take `CC1(C)S[C@@H]2[C@H](NC(=O)Cc3ccccc3)C(=O)N2[C@H]1C(=O)O`: the binding entry in assay [1] (setting [5]) is given as “no”.
